The values that follow come from patent US12187727B2, “Methods for antagonizing a melanocortin 4 receptor” (Pfizer Inc., priority 2020, dated 2025).

Where two headings read alike, the source gives them in different places. Some results are limits rather than exact numbers.

The target in one assay is hMC4R (Homo sapiens (Human), UniProt P32245). The assay is described as follows: In vitro binding affinity assay using hMC4R (radioligand competition binding, [125I]-(Nle4, D-Phe7)-α-MSH). To be noted: geometric mean. The method, then: Example AA. In Vitro Binding Affinity Assay Using hMC4R
Chain of hMC4R (P32245 whole entry): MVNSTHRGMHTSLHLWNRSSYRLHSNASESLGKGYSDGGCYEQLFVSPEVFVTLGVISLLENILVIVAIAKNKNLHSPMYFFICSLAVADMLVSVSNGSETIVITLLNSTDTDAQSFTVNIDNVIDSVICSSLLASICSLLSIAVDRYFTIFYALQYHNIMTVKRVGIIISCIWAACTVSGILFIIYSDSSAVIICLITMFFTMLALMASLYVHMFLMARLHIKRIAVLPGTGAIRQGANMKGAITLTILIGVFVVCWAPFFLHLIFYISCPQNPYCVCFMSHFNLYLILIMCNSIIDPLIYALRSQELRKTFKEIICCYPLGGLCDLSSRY
The binding affinity of test compounds at the […] (hMC4R) was assessed using a radioligand competition binding assay. […] Cell membranes were bulked and frozen until the assay was performed.
Compounds were solubilized in 100% dimethyl sulfoxide (DMSO) to a concentration of 30 mM. A 10-point intermediate dilution series using half log dilutions was created in 100% DMSO with a top concentration of 0.03 mM. […] The final compound range in the assay was 300 nM to 0.01 nM with a final DMSO concentration of 1%. […] The exact concentration of radioligand used for each experiment was determined by liquid scintillation counting and adjusted if necessary.
Frozen hMC4R cell membranes were thawed and Dounce homogenized. Homogenates were resuspended in assay buffer to a concentration of 2 μg per well. […] The plates were incubated for 2 hours at room temperature.
The raw data (expressed as counts per minute) were analyzed using ActivityBase (IDBS Data Management Software). […] Equilibrium dissociation constant for inhibitor of ligand and receptor interaction (Ki) values were then calculated from the IC50 values using the Cheng-Prusoff equation: Ki=IC50/(1+([L]/Kd)), where [L] is the concentration of the radioligand used in the experiment and Kd is the affinity of the radioligand (determined in separate saturation experiments).
(Displacement assays read how much labelled ligand stays bound in the presence of the test substance.)

In assay [1] the target is human Melanocortin-4 receptor (MC4R) (Homo sapiens (Human), UniProt P32245). The assay is described as follows: Functional in vitro MC4R antagonist potency assay (cAMP HTRF in CHO cells). Type of assay: cell-based. An outline of the steps: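 CHO cells stably expressing human MC4R were preincubated 30 min at 37 °C with compound ([…], 0.1% DMSO), then stimulated 30 min with EC80 αMSH (200 nM). Intracellular cAMP quantified by HTRF competitive immunoassay and normalized to agonist-stimulated and vehicle-only wells.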
Chain of human Melanocortin-4 receptor (MC4R) (P32245 whole entry): as above
(In general: Time-resolved FRET reads energy transfer from a long-lived donor to a nearby acceptor.)

Where [2] appears, read: human MC4R in CHO cells, cAMP HTRF, 200 nM aMSH challenge, Kb from IC50 by Leff-Dougall equation, geometric mean, read-out: Kb (nM) Antagonist geometric.
The mark [3] stands for this setting: read-out: Ki (nM) geometric mean.
The mark [4] stands for this setting: read-out: Kb (nM) Antagonist geometric mean.

The Ki is a measure of affinity in units of concentration, obtained from inhibition or displacement. As a reminder, the Kb is the affinity of an antagonist, worked out from how it opposes an agonist. In the case of `Cc1nc2c(cc1-c1ncccn1)CC[C@@]1(CCN(C(=O)[C@H](C)c3ccc(F)cc3F)C1)N2` (single isomer, unassigned) [Example 191], the Ki on hMC4R (read-out: Ki (nM) geometric) stood at 230 nM. Moreover, the Kb in assay [1] (setting [2]) is > 94 nM. For `COc1cc([C@@H](C)C(=O)N2CC[C@@]3(CCc4cc(-c5nc6ccccn6n5)c(C)nc4N3)C2)nc(C(F)F)n1` (single isomer, unassigned) [Example 130] the same measures were 5.9 nM and 9 nM. On to `Cc1nc2c(cc1-c1ncccn1)CC[C@@]1(CCN(C(=O)C(C)c3cc(OC(F)(F)F)ncc3Cl)C1)N2` (single isomer, unassigned) [Example 64], for which, on hMC4R (setting [3]), the Ki was 1 nM. Further, in assay [1] (setting [4]), the Kb was 5.1 nM. In the case of `COc1cc([C@@H](C)C(=O)N2CC[C@@]3(CCc4cc(-c5ncccn5)c(C)nc4N3)C2)c(C)cn1` (single isomer, unassigned) [Example 137], the Ki on hMC4R (read-out: Ki (nM) geometric) was 59 nM. Moreover, the Kb in assay [1] (setting [2]) came to 19 nM. As for `Cc1nc2c(cc1-c1ncccn1)CC[C@@]1(CCN(C(=O)[C@H](C)c3cc(C(F)(F)F)ncc3Cl)C1)N2` (single isomer, unassigned) [Example 39], on hMC4R (setting [3]), the Ki was 4.9 nM. For the same compound, the Kb in assay [1] (setting [4]) came to 23 nM. For `COc1cc([C@@H](C)C(=O)N2CCC3(CCc4cc(-c5cnn(C)c5)c(C)nc4N3)C2)c(F)cn1` (single isomer, unassigned) [Example 17] the same measures were 69 nM and > 64 nM. For `Cc1nc2c(cc1-c1ncccn1)CC[C@@]1(CCN(C(=O)C(C)c3ccc(OC(F)F)nc3)C1)N2` (single isomer, unassigned) [Example 6], in that order: 0.44 nM and 8.5 nM. With `COc1cc(CC(=O)N2CC[C@@]3(CCc4cc(-c5ncccn5)c(C)nc4N3)C2)c(F)cn1` [Example 106, 2-(5-fluoro-2-methoxypyridin-4-yl)-1-[(2S)-7-methyl-6-(pyrimidin-2-yl)-3,4-dihydro-1H-spiro[1,8-naphthyridine-2,3′-pyrrolidin]-1′-yl]ethan-1-one], the Ki on hMC4R (read-out: Ki (nM) geometric) came out at 3.5 nM. Also, the Kb in assay [1] (setting [2]) is 6.3 nM.

With `Cc1nc2c(cc1-c1ncccn1)CC[C@@]1(CCN(C(=O)[C@H](C)c3cc(F)c(F)cc3F)C1)N2` (single isomer, unassigned) [Example 53], the Ki on hMC4R (setting [3]) came out at 54 nM. Also, in assay [1] (setting [4]), the Kb was > 95 nM. On to `Cc1nc2c(cc1-c1ncccn1)CC[C@@]1(CCN(C(=O)[C@H](C)c3cc(F)c(F)c(F)c3)C1)N2` (single isomer, unassigned) [Example 56], for which the Ki at hMC4R (setting [3]) was 0.51 nM. For the same compound, the Kb in assay [1] (setting [4]) is 0.8 nM. `COc1cc([C@@H](C)C(=O)N2CC[C@@]3(CCc4cc(-c5cncc(OC)n5)c(C)nc4N3)C2)c(F)cn1` [Example 197, (2R)-2-(5-fluoro-2-methoxypyridin-4-yl)-1-[(2S)-6-(6-methoxypyrazin-2-yl)-7-methyl-3,4-dihydro-1H-spiro[1,8-naphthyridine-2,3′-pyrrolidin]-1′-yl]propan-1-one]: the Ki on hMC4R (read-out: Ki (nM) geometric) came to 18 nM. In assay [1] (setting [2]), the Kb was found to be 33 nM. For `Cc1nc2c(cc1-c1ncccn1)CC[C@@]1(CCN(C(=O)[C@H](C)c3ccnc(OC(F)F)c3)C1)N2` (single isomer, unassigned) [Example 195] the same measures were 1.2 nM and 3.5 nM. For `COc1cc([C@@H](C)C(=O)N2CC[C@@]3(CCc4cc(-c5nc(N(C)C)cc(C(F)(F)F)n5)c(C)nc4N3)C2)c(F)cn1` [Example 185, (2R)-1-{(2S)-6-[4-(dimethylamino)-6-(trifluoromethyl)pyrimidin-2-yl]-7-methyl-3,4-dihydro-1H-spiro[1,8-naphthyridine-2,3′-pyrrolidin]-1′-yl}-2-(5-fluoro-2-methoxypyridin-4-yl)propan-1-one], at hMC4R (read-out: Ki (nM) geometric), the Ki amounted to 5.5 nM.

With `Cc1nc2c(cc1-c1ncccn1)CC[C@@]1(CCN(C(=O)[C@H](C)c3cc(C(F)(F)F)ncc3F)C1)N2` (single isomer, unassigned) [Example 79], the Ki at hMC4R (setting [3]) is > 250 nM. Turning to `COc1ncc(Cl)c([C@@H](C)C(=O)N2CC[C@@]3(CCc4cc(-c5ncccn5)c(C)nc4N3)C2)n1` (single isomer, unassigned) [Example 85], on hMC4R (setting [3]), the Ki is > 250 nM. With `COc1cc([C@@H](C)C(=O)N2CC[C@@]3(CCc4cc(-c5ncccn5)c(C)nc4N3)C2)cc(OC(F)F)n1` (single isomer, unassigned) [Example 193], at hMC4R (read-out: Ki (nM) geometric), the Ki is 28 nM. On to `Cc1nc2c(cc1-c1cnn(C)c1)CCC1(CCN(C(=O)Cc3ccc(F)cc3)C1)N2` (single isomer, unassigned) [Example 19, 2-(4-fluorophenyl)-1-[7-methyl-6-(1-methyl-1H-pyrazol-4-yl)-3,4-dihydro-1H-spiro[1,8-naphthyridine-2,3′-pyrrolidin]-1′-yl]ethan-1-one], for which the Ki at hMC4R (setting [3]) is > 220 nM. As to `Cc1ccc2c(n1)NC1(CCN(C(=O)Cc3ccc(F)cc3)C1)CC2C` (single isomer, unassigned) [Example 9, 1-(4,7-dimethyl-3,4-dihydro-1H-spiro[1,8-naphthyridine-2,3′-pyrrolidin]-1′-yl)-2-(4-fluorophenyl)ethan-1-one], the Ki at hMC4R (setting [3]) is 380 nM. In the case of `COc1cc([C@@H](C)C(=O)N2CC[C@@]3(CCc4cc(-c5nnn(C)n5)c(C)nc4N3)C2)ccn1` (single isomer, unassigned) [Example 126], the Ki at hMC4R (read-out: Ki (nM) geometric) was 140 nM. As for `COc1cc([C@@H](C)C(=O)N2CC[C@@]3(CCc4ccc(C)nc4N3)C2)c(Cl)cn1` (single isomer, unassigned) [Example 101], the Ki at hMC4R (setting [3]) is 110 nM. The same measure, in the same setting: the same measure for `Cc1nc2c(cc1-c1ncccn1)CC[C@@]1(CCN(C(=O)C(C)c3ccc(OC(F)F)nc3)C1)N2` (single isomer, unassigned) [Example 5]: > 200 nM; for `Cc1nc2c(cc1-c1ncccn1)CC[C@@]1(CCN(C(=O)[C@H](C)c3cc(C(F)(F)F)ncc3Cl)C1)N2` (single isomer, unassigned) [Example 38]: > 200 nM. Still for that read-out and setting: the same measure for `Cc1nc2c(cc1-c1ncccn1)CC[C@@]1(CCN(C(=O)[C@H](C)c3cc(N(C)C)ncc3F)C1)N2` (single isomer, unassigned) [Example 82]: 120 nM; for `COc1cc([C@@H](C)C(=O)N2CC[C@@]3(CCc4ccc(C)nc4N3)C2)c(F)cn1` (single isomer, unassigned) [Example 99]: 81 nM. On to `COc1cc([C@@H](C)C(=O)N2CC[C@@]3(CCc4cc(Cl)c(C)nc4N3)C2)c(F)cn1` (single isomer, unassigned) [Example 103], for which the Ki on hMC4R (read-out: Ki (nM) geometric) was > 250 nM.

As for `COc1cc(OC)cc([C@@H](C)C(=O)N2CC[C@@]3(CCc4ccc(C)nc4N3)C2)c1` (single isomer, unassigned) [Example 97], the Ki at hMC4R (setting [3]) was found to be 100 nM.

`COc1cc(OC(F)F)cc([C@@H](C)C(=O)N2CC[C@@]3(CCc4cc(-c5ncccn5)c(C)nc4N3)C2)c1` (single isomer, unassigned) [Example 61]: the Ki on hMC4R (setting [3]) was 40 nM. Same read-out and setting: the same measure for `Cc1nc2c(cc1-c1ncccn1)CC[C@@]1(CCN(C(=O)[C@H](C)c3cc(OC(F)F)ncc3F)C1)N2` (single isomer, unassigned) [Example 77]: 84 nM; for `Cc1nc2c(cc1-c1ncccn1)CC[C@@]1(CCN(C(=O)[C@H](C)c3cc(OC(F)(F)F)ncc3F)C1)N2` (single isomer, unassigned) [Example 75]: 180 nM.

For the compound `COc1ccc([C@@H](C)C(=O)N2CC[C@@]3(CCc4cc(-c5ncccn5)c(C)nc4N3)C2)cc1F` (single isomer, unassigned) [Example 43], the Ki at hMC4R (setting [3]) came out at 43 nM.

Turning to `COc1ncc(F)c([C@@H](C)C(=O)N2CC[C@@]3(CCc4cc(-c5nc6ccccn6n5)c(C)nc4N3)C2)n1` (single isomer, unassigned) [Example 133], the Ki at hMC4R (read-out: Ki (nM) geometric) was found to be 63 nM. As to `Cc1nc2c(cc1-c1ncccn1)CC[C@@]1(CCN(C(=O)[C@H](C)c3cc(OC(F)F)ncc3Cl)C1)N2` (single isomer, unassigned) [Example 59], the Ki on hMC4R (setting [3]) was determined as 99 nM. On the same count and under the same terms, the same measure for `Cc1ccc2c(n1)NC1(CCN(C(=O)Cc3ccc(F)cc3)C1)CC2C` (single isomer, unassigned) [Example 11, 1-(4,7-dimethyl-3,4-dihydro-1H-spiro[1,8-naphthyridine-2,3′-pyrrolidin]-1′-yl)-2-(4-fluorophenyl)ethan-1-one]: > 2200 nM. As to `Cc1nc2c(cc1-c1nnn(C)n1)CC[C@@]1(CCN(C(=O)[C@H](C)c3ccc(C(F)(F)F)cc3)C1)N2` (single isomer, unassigned) [Example 110], the Ki at hMC4R (read-out: Ki (nM) geometric) amounted to 29 nM. Turning to `Cc1ccc2c(n1)NC1(CCN(C(=O)Cc3ccc(F)cc3)C1)CC2C` (single isomer, unassigned) [Example 12, 1-(4,7-dimethyl-3,4-dihydro-1H-spiro[1,8-naphthyridine-2,3′-pyrrolidin]-1′-yl)-2-(4-fluorophenyl)ethan-1-one], on hMC4R (setting [3]), the inhibitory constant (Ki) is > 2200 nM.
